Earlier results in PMC9847093 (Protein Science : A Publication of the Protein Society, 2023).

Conditions: for pKa of monomers used to calculate theoretical number of charges per AOS: M and G monomers; for pKa: ref Draget et al., [1994]

Row | Structure (SMILES) | pKa of monomers used to calculate theoretical number of charges per AOS | pKa
1 | O=C(O)[C@H]1O[C@@H](O)[C@@H](O)[C@@H](O)[C@@H]1O [M, β‐D‐mannuronate] | 3.38 | 3.4
2 | O=C(O)[C@@H]1O[C@@H](O)[C@@H](O)[C@@H](O)[C@@H]1O [G, α‐L‐guluronate] | 3.65 | 3.7
